Where a name gives a salt, the structure may show the parent alone.
Assays:
[1] = molecular target: human 5-HT1B receptor (Homo sapiens (Human), UniProt P28222); experiment: Competition binding in human 5-HT1B receptor; settings: [3H]-GR125743, Hela-5-HT1B membranes; read-out: h5-HT1B Ki
Procedure: Serotonin 5-HT1B receptor competition binding experiments were carried out in a polypropylene 96-well plate. In each well was incubated 5 μg of membranes from Hela-5-HT1B cell line prepared in the laboratory (Lot: A001/14-11-2011, protein concentration=3179 μg/ml), 1.5 nM [^3H]-GR125743 ([…], 0.1 mCi/ml, Perkin Elmer NET1172100UC) and compounds studied and standard. Non-specific binding was determined in the presence of GR55562 10 μM (TOCRIS 1054). The reaction mixture (Vt: 250 μl/well) was incubated at 25° C. for 90 min, 200 μL was transfered to GF/C 96-well plate (Millipore, Madrid, Spain) pretreated with 0.5% of PEI and treated with binding buffer (Tris-HCl 50 mM, EDTA 1 mM, MgCl2 10 mM, pH=7.4), after was filtered and washed four times with 250 μl wash buffer (Tris-HCl 50 mM, pH=7.4), before measuring in a microplate beta scintillation counter (Microbeta Trilux, PerkinElmer, Madrid, Spain). […] From the IC50 the Ki is calculated according to the following formula: […]
(§1) Being: • IC50: inhibitory concentration, • D: real concentration of radioligand and • Kd: dissociation constant (affinity of radioligand to the receptor).

[2] = molecular target: human 5-HT2A receptor (Homo sapiens (Human), UniProt P28223); experiment: Competition binding in human 5-HT2A receptor; settings: [3H]-Ketanserin, CHO-5-HT2A membranes; read-out: h5-HT2A Ki
Procedure: Serotonin 5-HT2A receptor competition binding experiments were carried out in a polypropilene 96-well plate. In each well was incubated 80 μg of membranes from CHO-5-HT2A cell line prepared in the laboratory (protein concentration=4337 μg/ml), 1 nM [^3H]-Ketanserin (47.3 Ci/mmol, 1 mCi/ml, Perkin Elmer NET791250UC) and compounds studied and standard. Non-specific binding was determined in the presence of Methysergide 1 μM (Sigma M137). The reaction mixture (Vt: 250 μl/well) was incubated at 37° C. for 30 min, 200 μL was transfered to GF/B 96-well plate (Millipore, Madrid, Spain) pretreated with 0.5% of PEI and treated with binding buffer (Tris-HCl 50 mM, pH=7.4), after was filtered and washed six times with 250 μl wash buffer (Tris-HCl 50 mM, pH=6.6), before measuring in a microplate beta scintillation counter (Microbeta Trilux, PerkinElmer, Madrid, Spain).
The raw radioactivity data is adjusted to a logistic regression of 4 parameters using GraphPad Prism software, from the specific junction the value of IC50 is obtained. From the IC50 the Ki is calculated according to the following formula: […]
as §1

[3] = system: HL-60; experiment: Cell viability assay, AML cell line HL-60; format: cell-based; settings: 48 h treatment, live cells by flow cytometry
Procedure: (§2) 0.15×10^6 AML cell lines (HL-60 or MonoMac-1) per mL were cultured in completed RPMI medium, supplemented with 10% Fetal bovine serum (FBS). Compounds were added to the medium at the concentration indicated (0.1, 1 and 10 μM), while controls were treated with equivalent concentration of vehicle (DMSO). Primary validation screenings were analyzed after 72 h of treatment, EC50 was determined upon 48 h treatments. Cells were stained with the live-dead discrimination dye 7-aminoactinomycin D (7-AAD) and Hoechst 33342 and acquired in a flow cytometer, with a volumetric counting. Live cells were discriminated based on a discrete FSC-SSC profile, 7-AAD negativity and dim positivity to Hoechst 33342. EC50 was calculated with the Prism GraphPad software.

[4] = system: MonoMac-1; experiment: Cell viability assay, AML cell line MonoMac-1; format: cell-based; settings: 48 h treatment, live cells by flow cytometry
Procedure: as §2

Sequence of human 5-HT2A receptor (P28223 whole entry): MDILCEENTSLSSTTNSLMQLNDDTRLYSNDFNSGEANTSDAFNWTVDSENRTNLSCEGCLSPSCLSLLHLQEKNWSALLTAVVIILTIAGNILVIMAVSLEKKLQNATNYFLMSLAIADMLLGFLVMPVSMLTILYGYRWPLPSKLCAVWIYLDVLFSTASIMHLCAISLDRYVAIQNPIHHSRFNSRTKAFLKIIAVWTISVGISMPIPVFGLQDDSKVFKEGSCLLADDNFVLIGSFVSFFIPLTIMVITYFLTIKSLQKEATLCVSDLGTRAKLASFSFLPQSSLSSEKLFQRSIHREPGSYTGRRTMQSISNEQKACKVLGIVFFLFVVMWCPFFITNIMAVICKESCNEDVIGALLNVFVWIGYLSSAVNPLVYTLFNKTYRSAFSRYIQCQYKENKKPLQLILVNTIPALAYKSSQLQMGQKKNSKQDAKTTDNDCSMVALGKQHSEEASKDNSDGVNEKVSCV
Sequence of human 5-HT1B receptor (P28222 whole entry): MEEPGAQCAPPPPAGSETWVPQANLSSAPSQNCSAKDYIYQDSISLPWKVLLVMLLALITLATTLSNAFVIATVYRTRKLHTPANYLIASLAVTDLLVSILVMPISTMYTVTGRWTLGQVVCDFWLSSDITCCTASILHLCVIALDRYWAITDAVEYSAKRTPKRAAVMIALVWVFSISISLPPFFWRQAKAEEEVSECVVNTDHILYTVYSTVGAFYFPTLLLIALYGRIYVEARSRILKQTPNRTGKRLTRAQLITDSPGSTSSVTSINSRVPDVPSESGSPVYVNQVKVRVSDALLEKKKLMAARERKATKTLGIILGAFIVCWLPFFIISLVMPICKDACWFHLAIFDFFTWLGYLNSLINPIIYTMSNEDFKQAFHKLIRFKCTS

Row | SMILES | Ki [1] [nM] | Ki [2] [nM] | EC50 ([3]; Homo sapiens, HL-60) [nM] | EC50 ([4]; Mono-Mac-1) [nM] | EC50 [3] [nM] | EC50 [4] [nM]
1 | Cc1nc(-c2ccc(-c3ccc(C(=O)Nc4cc(OCCN(C)C)c(Br)cn4)cn3)c(F)c2)no1 [Example 40, N-(5-bromo-4-(2-(dimethylamino)ethoxy)pyridin-2-yl)-6-(2-fluoro-4-(5-methyl-1,2,4-oxadiazol-3-yl)phenyl)nicotinamide] | 3.5 | 1500 | 1010 | 570 |  | 
2 | Cc1nc(-c2ccc(-c3ccc(C(=O)Nc4cc(OCCN(C)C)c(Br)cn4)cc3)c(F)c2)no1 [Example 16, N-(5-bromo-4-(2-(dimethylamino)ethoxy)pyridin-2-yl)-2′-fluoro-4′-(5-methyl-1,2,4-oxadiazol-3-yl)-[1,1′-biphenyl]-4-carboxamide] |  |  | 1080 | 460 |  | 
3 | Cc1nc(-c2ccc(-c3ccc(C(=O)Nc4ccc(Br)c(OCCN(C)C)n4)cn3)c(F)c2)no1 [Example 52, N-(5-bromo-6-(2-(dimethylamino)ethoxy)pyridin-2-yl)-6-(2-fluoro-4-(5-methyl-1,2,4-oxadiazol-3-yl)phenyl)nicotinamide] |  |  | 1030 | 4320 |  | 
4 | Cc1nc(-c2ccc(-c3ccc(C(=O)Nc4ccc(Br)c(OCCN(C)C)c4)cn3)c(F)c2)no1 [Example 2, N-(4-bromo-3-(2-(dimethylamino)ethoxy)phenyl)-6-(2-fluoro-4-(5-methyl-1,2,4-oxadiazol-3-yl)phenyl)nicotinamide] |  |  | 580 | 1110 |  | 
5 | COc1cc(-c2noc(C)n2)ccc1-c1ccc(C(=O)Nc2ccc(Br)c(OCCN(C)C)c2)cn1 [Example 5, N-(4-bromo-3-(2-(dimethylamino)ethoxy)phenyl)-6-(2-methoxy-4-(5-methyl-1,2,4-oxadiazol-3-yl)phenyl)nicatinamide] |  |  |  |  | 1180 | 1140
6 | Cc1nc(-c2ccc(-c3ccc(C(=O)Nc4ccc(C#N)c(OCCN(C)C)c4)cn3)c(F)c2)no1 [Example 8, N-(4-cyano-3-(2-(dimethylamino)ethoxy)phenyl)-6-(2-fluoro-4-(5-methyl-1,2,4-oxadiazol-3-yl)phenyl)nicotinamide] |  |  | 2810 | 2000 |  | 
7 | Cc1nc(-c2ccc(-c3ccc(C(=O)Nc4ccc(Br)c(OCCN(C)C)c4)cn3)c(C3CC3)c2)no1 [Example 1, N-(4-bromo-3-(2-(dimethylamino)ethoxy)phenyl)-6-(2-cyclopropyl-4-(5-methyl-1,2,4-oxadiazol-3-yl)phenyl)nicotinamide] |  |  | 1000 | 790 |  | 
8 | Cc1nc(-c2ccc(-c3ccc(C(=O)Nc4ncc(Br)c(OCCN(C)C)n4)cn3)c(F)c2)no1 [Example 58, N-(5-bromo-4-(2-(dimethylamino)ethoxy)pyrimidin-2-yl)-6-(2-fluoro-4-(5-methyl-1,2,4-oxadiazol-3-yl)phenyl)nicotinamide] |  |  | 3790 | 2610 |  | 
9 | Cc1nc(-c2ccc(-c3ccc(NC(=O)c4ccc(C#N)c(OCCN(C)C)c4)cn3)c(Cl)c2)no1 [Example 73, N-(6-(2-chloro-4-(5-methyl-1,2,4-oxadiazol-3-yl)phenyl)pyridin-3-yl)-4-cyano-3-(2-(dimethylamino)ethoxy)benzamide] |  |  | 1530 | 3080 |  | 
10 | Cc1nc(-c2ccc(-c3ccc(C(=O)Nc4cc(OCCN(C)C)c(Br)cn4)cn3)c(Cl)c2)no1 [Example 41, N-(5-bromo-4-(2-(dimethylamino)ethoxy)pyridin-2-yl)-6-(2-chloro-4-(5-methyl-1,2,4-oxadiazol-3-yl)phenyl)nicotinamide] | 0.3 | 1000 |  |  |  | 
11 | Cc1nc(-c2ccc(-c3ccc(C(=O)Nc4cc(OCCN(C)C)c(Br)cn4)cc3)c(Cl)c2)no1 [Example 17, N-(5-bromo-4-(2-(dimethylamino)ethoxy)pyridin-2-yl)-2′-chloro-4′-(5-methyl-1,2,4-oxadiazol-3-yl)-[1,1′-biphenyl]-4-carboxamide] |  |  | 2650 | 1320 |  | 
12 | Cc1nc(-c2ccc(-c3ccc(C(=O)Nc4ccc(C#N)c(OCCN(C)C)n4)cc3)c(C3CC3)c2)no1 [Example 30, N-(5-cyano-6-(2-(dimethylamino)ethoxy)pyridin-2-yl)-2′-cyclopropyl-4′-(5-methyl-1,2,4-oxadiazol-3-yl)-[1,1′-biphenyl]-4-carboxamide] |  |  | 1030 | 2800 |  | 
13 | Cc1nc(-c2ccc(-c3ccc(C(=O)Nc4ccc(C#N)c(OCCN(C)C)n4)cn3)c(Cl)c2)no1 [Example 56, 6-(2-chloro-4-(5-methyl-1,2,4-oxadiazol-3-yl)pheny)-N-(5-cyano-6-(2-(dimethylamino)ethoxy)pyridin-2-yl)nicotinamide] |  |  |  |  | 620 | 2020
14 | Cc1nc(-c2ccc(-c3ccc(C(=O)Nc4cc(OCCN(C)C)c(Br)cn4)cc3)c(C(F)(F)F)c2)no1 [Example 18, N-(5-bromo-4-(2-(dimethylamino)ethoxy)pyridin-2-yl)-4′-(5-methyl-1,2,4-oxadiazol-3-yl)-2′-(trifluoromethyl)-[1,1′-biphenyl]-4-carboxamide] |  |  | 1170 | 420 |  | 
15 | Cc1nc(-c2ccc(-c3ccc(C(=O)Nc4ccc(Br)c(OCCN(C)C)c4)cn3)c(Cl)c2)no1 [Example 3, N-(4-bromo-3-(2-(dimethylamino)ethoxy)phenyl)-6-(2-chloro-4-(5-methyl-1,2,4-oxadiazol-3-yl)phenyl)nicotinamide] |  |  | 1620 | 870 |  | 
16 | Cc1nc(-c2ccc(-c3ccc(C(=O)Nc4cc(OCCN(C)C)c(Br)cn4)cn3)c(C(F)(F)F)c2)no1 [Example 42, N-(5-bromo-4-(2-(dimethylamino)ethoxy)pyridin-2-yl)-6-(4-(5-methyl-1,2,4-oxadiazol-3-yl)-2-(trifluoromethyl)phenyl)nicotinamide] | 2 | 3500 |  |  |  | 
17 | Cc1nc(-c2ccc(-c3ccc(C(=O)Nc4ccc(Br)c(OCCN(C)C)n4)cn3)c(C3CC3)c2)no1 [Example 51, N-(5-bromo-6-(2-(dimethylamino)ethoxy)pyridin-2-yl)-6-(2-cyclopropyl-4-(5-methyl-1,2,4-oxadiazol-3-yl)phenyl)nicotinamide] |  |  | 1990 | 1200 |  | 
18 | Cc1nc(-c2ccc(-c3ccc(C(=O)Nc4ccc(C#N)c(OCCN(C)C)c4)cn3)c(Cl)c2)no1 [Example 9, 6-(2-chloro-4-(5-methyl-1,2,4-oxadiazol-3-yl)phenyl)-N-(4-cyano-3-(2-(dimethylamino)ethoxy)phenyl)nicotinamide] |  |  | 990 | 880 |  | 
19 | COc1cc(-c2noc(C)n2)ccc1-c1ccc(C(=O)Nc2cc(OCCN(C)C)c(C#N)cn2)cc1 [Example 25, N-(5-cyano-4-(2-(dimethylamino)ethoxy)pyridin-2-yl)-2′-methoxy-4′-(5-methyl-1,2,4-oxadiazol-3-yl)-[1,1′-biphenyl]-4-carboxamide] |  |  | 2800 | 2690 |  | 
20 | Cc1nc(-c2ccc(-c3ccc(C(=O)N4CCc5cc6c(cc54)C4(CCN(C)CC4)CO6)cc3)c(C)c2)no1 [SB9, 1′-Methyl-5-[[2′-methyl-4′-(5-methyl-1,2,4-oxadiazol-3-yl)biphenyl-4-yl]carbonyl]-2,3,6,7-tetrahydrospiro[furo[2,3-f]indole-3,4′-piperidine hydrochloride, reference compound] |  | 5.92 | 4780 | 1180 |  | 
21 | Cc1nc(-c2ccc(-c3ccc(C(=O)Nc4ccc(Br)c(OCCN(C)C)n4)cn3)c(Cl)c2)no1 [Example 53, N-(5-bromo-6-(2-(dimethylamino)ethoxy)pyridin-2-yl)-6-(2-chloro-4-(5-methyl-1,2,4-oxadiazol-3-yl)phenyl)nicotinamide] |  |  | 600 | 1320 |  | 

— patent US20240166639A1, “POTENT AND SELECTIVE COMPOUNDS AS SEROTONIN 1B RECEPTOR MODULATORS” (LEUKOS BIOTECH, S.L., priority 2020, published 2024)
